Measurements published in PubChem BioAssay (NCI).
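Cultured in 96-well plates, cells were exposed to test compound for 48 hours across five concentrations. GI50 is the concentration that inhibits growth by half. TGI is the concentration that stops growth completely.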

Tests used:
Test in all cases: inhibition of tumour cell growth, NCI panel, 48 h
[1] = test system: TK-10 renal
[2] = test system: MALME-3M melanoma
[3] = test system: UACC-257 melanoma
[4] = test system: 786-0 renal
[5] = test system: SN12C renal
[6] = test system: BT-549 breast
[7] = test system: OVCAR-5 ovarian
[8] = test system: SF-295 CNS
[9] = test system: MDA-MB-468 breast
[10] = test system: M14 melanoma
[11] = test system: HOP-62 NSCLC
[12] = test system: T-47D breast
[13] = test system: K-562 leukemia
[14] = test system: HT29 colon
[15] = test system: HS 578T breast
[16] = test system: SK-MEL-5 melanoma
[17] = test system: OVCAR-4 ovarian
[18] = test system: U251 CNS
[19] = test system: NCI-H460 lung
[20] = test system: SK-OV-3 ovarian
[21] = test system: HCT-15 colon
[22] = test system: LOX IMVI melanoma
[23] = test system: SNB-75 CNS
[24] = test system: EKVX NSCLC
[25] = test system: NCI-H522 lung
[26] = test system: HCT-116 colon
[27] = test system: DU-145 prostate
[28] = test system: CAKI-1 renal
[29] = test system: HL-60(TB) leukemia
[30] = test system: UACC-62 melanoma
[31] = test system: SK-MEL-28 melanoma
[32] = test system: OVCAR-8 ovarian
[33] = test system: RXF 393 renal
[34] = test system: NCI/ADR-RES ovarian
[35] = test system: SF-539 CNS
[36] = test system: SW-620 colon
[37] = test system: A498 renal
[38] = test system: NCI-H23 lung
[39] = test system: MOLT-4 leukemia
[40] = test system: ACHN renal
[41] = test system: A549 NSCLC
[42] = test system: MCF7 breast
[43] = test system: IGROV1 ovarian
[44] = test system: MDA-MB-435
[45] = test system: CCRF-CEM leukemia
[46] = test system: HCC-2998 colon
[47] = test system: SK-MEL-2 melanoma
[48] = test system: COLO 205 colon
[49] = test system: RPMI-8226 leukemia
[50] = test system: OVCAR-3 ovarian
[51] = test system: SNB-19 CNS
[52] = test system: HOP-92 NSCLC
[53] = test system: PC-3 prostate
[54] = test system: NCI-H226 lung
[55] = test system: KM12 colon
[56] = test system: SF-268 CNS

Work on `O=C(N/N=C/c1ccc(B(O)O)o1)c1[nH]c2ccc(Br)cc2c1-c1ccccc1` yielded a GI50 [1] of 37.1 µM, a TGI [1] greater than 100 µM and a GI50 [2] of 26.9 µM. It also gave a TGI [2] greater than 100 µM, a GI50 [3] of 19.1 µM and a TGI [3] greater than 100 µM. For the same molecule, the GI50 [4] was 17.9 µM, the TGI [4] was 54.6 µM and the GI50 [5] was 24.4 µM. The TGI [5] was greater than 100 µM, the GI50 [6] was 12 µM and the TGI [6] was 33.3 µM. The GI50 [7] was 27.5 µM, the TGI [7] was greater than 100 µM and the GI50 [8] was 13.1 µM. It also gave a TGI [8] of 43.1 µM, a GI50 [9] of 19.3 µM and a TGI [9] of 57.2 µM. For the same molecule, the GI50 [10] was 19 µM, the TGI [10] was greater than 100 µM and the GI50 [11] was 11.9 µM. It also gave a TGI [11] of 36.6 µM, a GI50 [12] of 21.4 µM and a TGI [12] greater than 100 µM. The GI50 [13] was 5.46 µM, the TGI [13] was 45 µM and the GI50 [14] was 20.6 µM. It also gave a TGI [14] of 50.9 µM, a GI50 [15] of 8.91 µM and a TGI [15] of 93.6 µM. The GI50 [16] was 14.7 µM, the TGI [16] was 35.5 µM and the GI50 [17] was 47 µM. The TGI [17] was greater than 100 µM, the GI50 [18] was 16.5 µM and the TGI [18] was 44.4 µM. It also gave a GI50 [19] of 29.1 µM, a TGI [19] greater than 100 µM and a GI50 [20] of 21.8 µM. It also gave a TGI [20] of 67.3 µM, a GI50 [21] of 22.6 µM and a TGI [21] greater than 100 µM. It also gave a GI50 [22] of 18.1 µM, a TGI [22] greater than 100 µM and a GI50 [23] of 3.26 µM. The TGI [23] was 20.6 µM, the GI50 [24] was 28.6 µM and the TGI [24] was greater than 100 µM. It also gave a GI50 [25] of 2.94 µM, a TGI [25] of 13.5 µM and a GI50 [26] of 16.9 µM. For the same molecule, the TGI [26] was greater than 100 µM, the GI50 [27] was 32.3 µM and the TGI [27] was greater than 100 µM. The GI50 [28] was 30.8 µM, the TGI [28] was greater than 100 µM and the GI50 [29] was 13 µM. For the same molecule, the TGI [29] was 37.1 µM, the GI50 [30] was 3.24 µM and the TGI [30] was 15.5 µM. For the same molecule, the GI50 [31] was 10.7 µM, the TGI [31] was greater than 100 µM and the GI50 [32] was 17.7 µM. For the same molecule, the TGI [32] was 41.6 µM, the GI50 [33] was 5.38 µM and the TGI [33] was 24.1 µM. The GI50 [34] was 12.2 µM, the TGI [34] was 56.2 µM and the GI50 [35] was 13 µM. It also gave a TGI [35] of 31.3 µM, a GI50 [36] of 35.7 µM and a TGI [36] greater than 100 µM. For the same molecule, the GI50 [37] was 23.3 µM, the TGI [37] was greater than 100 µM and the GI50 [38] was 26.5 µM. For the same molecule, the TGI [38] was greater than 100 µM, the GI50 [39] was 20.3 µM and the TGI [39] was 73.3 µM. It also gave a GI50 [40] of 29.6 µM, a TGI [40] greater than 100 µM and a GI50 [41] of 27.1 µM. It also gave a TGI [41] greater than 100 µM, a GI50 [42] of 24.7 µM and a TGI [42] greater than 100 µM. The GI50 [43] was 25.7 µM, the TGI [43] was greater than 100 µM and the GI50 [44] was 3.66 µM. It also gave a TGI [44] greater than 100 µM, a GI50 [45] of 17.5 µM and a TGI [45] of 55.4 µM. It also gave a GI50 [46] of 25.4 µM, a TGI [46] of 90.2 µM and a GI50 [47] of 13.5 µM. It also gave a TGI [47] of 43.5 µM, a GI50 [48] of 19.8 µM and a TGI [48] of 46.6 µM. The GI50 [49] was 29.5 µM, the TGI [49] was greater than 100 µM and the GI50 [50] was 14.8 µM. The TGI [50] was greater than 100 µM, the GI50 [51] was 21.1 µM and the TGI [51] was 89.7 µM. For the same molecule, the GI50 [52] was 11.7 µM, the TGI [52] was 52.8 µM and the GI50 [53] was 12.9 µM. It also gave a TGI [53] greater than 100 µM, a GI50 [54] of 45.8 µM and a TGI [54] greater than 100 µM. The GI50 [55] was 19.2 µM, the TGI [55] was greater than 100 µM and the GI50 [56] was 16.1 µM. The TGI [56] was greater than 100 µM.
